Measured values from PubChem BioAssay (NCI).
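Following 48 hours of exposure in 96-well plates, responses at five concentrations were used to interpolate endpoints linearly. Abbreviation: GI50, concentration required for 50% inhibition of growth. At the TGI there is no net growth.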

Legend:
Assay in all cases: NCI tumour cell line growth inhibition, 48 h
[1] = system: LOX IMVI melanoma
[2] = system: SW-620 colon
[3] = system: XF 498 CNS
[4] = system: OVCAR-4 ovarian
[5] = system: HT29 colon
[6] = system: SF-539 CNS
[7] = system: A549 NSCLC
[8] = system: SN12C renal
[9] = system: SN12K1 renal
[10] = system: DLD-1 colon
[11] = system: UO-31 renal
[12] = system: SK-MEL-28 melanoma
[13] = system: P388 leukemia
[14] = system: OVCAR-5 ovarian
[15] = system: SNB-19 CNS
[16] = system: CAKI-1 renal
[17] = system: NCI-H460 lung
[18] = system: BT-549 breast
[19] = system: P388/ADR leukemia
[20] = system: DMS 273 small cell lung
[21] = system: COLO 205 colon
[22] = system: U251 CNS
[23] = system: PC-3 prostate
[24] = system: ACHN renal
[25] = system: UACC-62 melanoma
[26] = system: M14 melanoma
[27] = system: HOP-92 NSCLC
[28] = system: MDA-MB-231 breast
[29] = system: HCT-15 colon
[30] = system: SK-MEL-2 melanoma
[31] = system: HS 578T breast
[32] = system: MALME-3M melanoma
[33] = system: RPMI-8226 leukemia
[34] = system: SF-295 CNS
[35] = system: MOLT-4 leukemia
[36] = system: MDA-MB-435
[37] = system: TK-10 renal
[38] = system: K-562 leukemia
[39] = system: 786-0 renal
[40] = system: NCI-H226 lung
[41] = system: EKVX NSCLC
[42] = system: SNB-78 CNS
[43] = system: HCT-116 colon
[44] = system: SK-OV-3 ovarian
[45] = system: OVCAR-8 ovarian
[46] = system: T-47D breast
[47] = system: NCI-H23 lung
[48] = system: M19-MEL melanoma
[49] = system: HOP-62 NSCLC
[50] = system: SK-MEL-5 melanoma
[51] = system: KM12 colon
[52] = system: DMS 114 small cell lung
[53] = system: MCF7 breast
[54] = system: OVCAR-3 ovarian
[55] = system: NCI/ADR-RES ovarian
[56] = system: MDA-N
[57] = system: HL-60(TB) leukemia
[58] = system: A498 renal
[59] = system: IGROV1 ovarian
[60] = system: DU-145 prostate
[61] = system: RXF 393 renal
[62] = system: KM20L2 colon
[63] = system: HOP-18 NSCLC
[64] = system: HCC-2998 colon
[65] = system: NCI-H522 lung
[66] = system: UACC-257 melanoma
[67] = system: SF-268 CNS

COC(=O)C12OCC34C(CC5C(C)=C(O)C(=O)CC5(C)C3C(O)C1O)OC(=O)C(OC(=O)C=C(C)C)C24 (configuration not stated)
TGI [1]: > 500000 nM | GI50 [2]: 231 nM | TGI [2]: > 500000 nM | TGI [3]: > 476000 nM | GI50 [4]: > 500000 nM | GI50 [5]: < 215 nM | TGI [5]: > 500000 nM | TGI [6]: > 500000 nM | TGI [7]: > 500000 nM | GI50 [8]: 320 nM | TGI [9]: > 500000 nM | TGI [10]: > 79300 nM | GI50 [11]: 576 nM | GI50 [12]: < 215 nM | TGI [13]: > 500000 nM | GI50 [14]: 245 nM | GI50 [15]: < 215 nM | TGI [15]: > 500000 nM | GI50 [16]: 899 nM | TGI [17]: > 316000 nM | TGI [18]: 726 nM | TGI [19]: > 500000 nM | TGI [20]: > 500000 nM | TGI [21]: > 500000 nM | TGI [22]: > 500000 nM | TGI [23]: 631 nM | TGI [24]: 463 nM | GI50 [25]: < 215 nM | TGI [26]: 359 nM | TGI [27]: 494000 nM | TGI [28]: 90.5 nM | GI50 [29]: 456 nM | GI50 [30]: < 215 nM | TGI [31]: 2030 nM | GI50 [32]: < 215 nM | TGI [33]: > 500000 nM | GI50 [34]: 232 nM | TGI [35]: > 500000 nM | TGI [36]: 905 nM | TGI [37]: 582 nM | GI50 [38]: < 215 nM | TGI [39]: 689 nM | GI50 [40]: < 215 nM | TGI [41]: > 500000 nM | TGI [42]: > 500000 nM | GI50 [43]: 226 nM | TGI [44]: > 500000 nM | GI50 [45]: 222 nM | TGI [46]: 78.9 nM | GI50 [47]: < 215 nM | TGI [48]: > 500000 nM | TGI [49]: > 500000 nM | GI50 [50]: < 215 nM | GI50 [51]: < 215 nM | TGI [51]: > 500000 nM | TGI [52]: > 460000 nM | TGI [53]: > 500000 nM | TGI [54]: > 500000 nM | GI50 [55]: 4340 nM | TGI [56]: 481 nM | TGI [57]: > 500000 nM | TGI [58]: > 500000 nM | TGI [59]: > 500000 nM | TGI [60]: > 8120 nM | GI50 [61]: 231 nM | TGI [62]: > 500000 nM | TGI [63]: > 500000 nM | GI50 [64]: < 156 nM | GI50 [65]: < 215 nM | GI50 [66]: 231 nM | GI50 [67]: 344 nM | TGI [67]: > 500000 nM
